Literature values as cited in patent publication US11564888B2, “Extended release compositions comprising trihexyphenidyl” (KASHIV SPECIALTY PHARMACEUTICALS, LLC, priority 2018, dated 2023).

Details: in vivo

plasma half-life: about 3.7 hours
Compound: OC(CCN1CCCCC1)(c1ccccc1)C1CCCCC1 (stereo not drawn) [trihexyphenidyl, α-cyclohexyl-α-phenyl-1-piperidinepropanol]
